# Values of other authors, collected in PubChem BioAssay AID1259409 (Chemical Carcinogenesis Research Information System (CCRIS), 2018).
# Tested on: rodent chemically induced tumor inhibition, incidence and multiplicity
# Assay: CCRIS tumor inhibitor studies
# Conditions: Dose [Inhibitor]: 0, Route [Inhibitor]: ORAL
smiles,measurement,setting,value
O=C(O)c1ccc(O)c(O)c1,"tumour outcome (control, treated, inhibition, significance)","Carcinogen: N-BUTYL-N-(4-HYDROXYBUTYL)NITROSAMINE, 3817-11-6, 2000 PPM IN DIET FOR 33 WK BEGINNING 1 WK POST CARCINOGEN TREATMENT (STUDY DURATION: 41 WK), Species: RAT, Strain/Sex: F344/MALE, Target Tissue: Type of Lesion: BLADDER: CARCINOMA, Dose [Carcinogen]: 0.05% IN DRINKING WATER FOR 6 WK, Promoter: NONE USED","17/22 (77%), 11/27 (41%), 47%, p<0.03"
same,"tumour outcome (control, treated, inhibition, significance)","Carcinogen: N-BUTYL-N-(4-HYDROXYBUTYL)NITROSAMINE, 3817-11-6, 2000 PPM IN DIET FOR 33 WK BEGINNING 1 WK POST CARCINOGEN TREATMENT (STUDY DURATION: 41 WK), Species: RAT, Strain/Sex: F344/MALE, Target Tissue: Type of Lesion: BLADDER: PAPILLOMA, Dose [Carcinogen]: 0.05% IN DRINKING WATER FOR 6 WK, Promoter: NONE USED","1/22 (5%), 1/27 (4%), 20%, not significant"
same,"tumour outcome (control, treated, inhibition, significance)","Carcinogen: N-METHYL-N-NITROSOUREA, 684-93-5, 1000 PPM IN DIET FOR 14 WK BEGINNING 1 WK PRIOR TO CARCINOGEN TREATMENT (STUDY DURATION: 32 WK), Species: RAT, Strain/Sex: F344/MALE, Target Tissue: Type of Lesion: GLANDULAR STOMACH: ADENOCARCINOMA, Dose [Carcinogen]: 400 PPM IN DRINKING WATER FOR 12 WK, Promoter: NONE USED","59%, 18%, 69%, p<0.05"
same,"tumour outcome (control, treated, inhibition, significance)","Carcinogen: N-METHYL-N-NITROSOUREA, 684-93-5, 1000 PPM IN DIET FOR 14 WK BEGINNING 1 WK PRIOR TO CARCINOGEN TREATMENT (STUDY DURATION: 36 WK), Species: RAT, Strain/Sex: F344/MALE, Target Tissue: Type of Lesion: GLANDULAR STOMACH: ADENOCARCINOMA, Dose [Carcinogen]: 400 PPM IN DRINKING WATER FOR 12 WK, Promoter: NONE USED","13/22 (59%), 4/22 (18%), 69%, p<0.05"
same,"tumour outcome (control, treated, inhibition, significance)","Carcinogen: N-NITROSOBIS(2-OXOPROPYL)AMINE, 60599-38-4, 500 PPM IN DIET FOR 49 WK BEGINNING 1 WK POST CARCINOGEN LAST TREATMENT (STUDY DURATION: 51 WK), Species: HAMSTER, Strain/Sex: SYRIAN/FEMALE, Target Tissue: Type of Lesion: KIDNEY: ADENOCARCINOMA, Dose [Carcinogen]: 20 MG/KG BW 1/WK FOR 2 WK","7%, 7%, 0%, not significant"
same,"tumour outcome (control, treated, inhibition, significance)","Carcinogen: N-NITROSOBIS(2-OXOPROPYL)AMINE, 60599-38-4, 500 PPM IN DIET FOR 49 WK BEGINNING 1 WK POST CARCINOGEN LAST TREATMENT (STUDY DURATION: 51 WK), Species: HAMSTER, Strain/Sex: SYRIAN/FEMALE, Target Tissue: Type of Lesion: LIVER: CHOLANGIOCELLULAR CARCINOMA, Dose [Carcinogen]: 20 MG/KG BW 1/WK FOR 2 WK","65.5%, 59%, 12%, not significant"
same,"tumour outcome (control, treated, inhibition, significance)","Carcinogen: N-NITROSOBIS(2-OXOPROPYL)AMINE, 60599-38-4, 500 PPM IN DIET FOR 49 WK BEGINNING 1 WK POST CARCINOGEN LAST TREATMENT (STUDY DURATION: 51 WK), Species: HAMSTER, Strain/Sex: SYRIAN/FEMALE, Target Tissue: Type of Lesion: LIVER: HEMANGIOMA, Dose [Carcinogen]: 20 MG/KG BW 1/WK FOR 2 WK","3%, 0%, 100%, not significant"
same,"tumour outcome (control, treated, inhibition, significance)","Carcinogen: N-NITROSOBIS(2-OXOPROPYL)AMINE, 60599-38-4, 500 PPM IN DIET FOR 49 WK BEGINNING 1 WK POST CARCINOGEN LAST TREATMENT (STUDY DURATION: 51 WK), Species: HAMSTER, Strain/Sex: SYRIAN/FEMALE, Target Tissue: Type of Lesion: LIVER: HEPATOCELLULAR ADENOMA, Dose [Carcinogen]: 20 MG/KG BW 1/WK FOR 2 WK","72%, 79%, -9%, not significant"
same,"tumour outcome (control, treated, inhibition, significance)","Carcinogen: N-NITROSOBIS(2-OXOPROPYL)AMINE, 60599-38-4, 500 PPM IN DIET FOR 49 WK BEGINNING 1 WK POST CARCINOGEN LAST TREATMENT (STUDY DURATION: 51 WK), Species: HAMSTER, Strain/Sex: SYRIAN/FEMALE, Target Tissue: Type of Lesion: LIVER: HEPATOCELLULAR CARCINOMA, Dose [Carcinogen]: 20 MG/KG BW 1/WK FOR 2 WK","17%, 14%, 20%, not significant"
same,"tumour outcome (control, treated, inhibition, significance)","Carcinogen: N-NITROSOBIS(2-OXOPROPYL)AMINE, 60599-38-4, 500 PPM IN DIET FOR 49 WK BEGINNING 1 WK POST CARCINOGEN LAST TREATMENT (STUDY DURATION: 51 WK), Species: HAMSTER, Strain/Sex: SYRIAN/FEMALE, Target Tissue: Type of Lesion: LUNG: ADENOCARCINOMA, Dose [Carcinogen]: 20 MG/KG BW 1/WK FOR 2 WK","33%, 33%, 0%, not significant"
same,"tumour outcome (control, treated, inhibition, significance)","Carcinogen: N-NITROSOBIS(2-OXOPROPYL)AMINE, 60599-38-4, 500 PPM IN DIET FOR 49 WK BEGINNING 1 WK POST CARCINOGEN LAST TREATMENT (STUDY DURATION: 51 WK), Species: HAMSTER, Strain/Sex: SYRIAN/FEMALE, Target Tissue: Type of Lesion: LUNG: ADENOMA, Dose [Carcinogen]: 20 MG/KG BW 1/WK FOR 2 WK","83%, 87%, -4%, not significant"
same,"tumour outcome (control, treated, inhibition, significance)","Carcinogen: N-NITROSOBIS(2-OXOPROPYL)AMINE, 60599-38-4, 500 PPM IN DIET FOR 49 WK BEGINNING 1 WK POST CARCINOGEN LAST TREATMENT (STUDY DURATION: 51 WK), Species: HAMSTER, Strain/Sex: SYRIAN/FEMALE, Target Tissue: Type of Lesion: OVARY: CYSTADENOMA, Dose [Carcinogen]: 20 MG/KG BW 1/WK FOR 2 WK","3%, 3%, 0%, not significant"
same,"tumour outcome (control, treated, inhibition, significance)","Carcinogen: N-NITROSOBIS(2-OXOPROPYL)AMINE, 60599-38-4, 500 PPM IN DIET FOR 49 WK BEGINNING 1 WK POST CARCINOGEN LAST TREATMENT (STUDY DURATION: 51 WK), Species: HAMSTER, Strain/Sex: SYRIAN/FEMALE, Target Tissue: Type of Lesion: PANCREAS: ADENOCARCINOMA, Dose [Carcinogen]: 20 MG/KG BW 1/WK FOR 2 WK","86%, 90%, -4%, not significant"
same,"tumour outcome (control, treated, inhibition, significance)","Carcinogen: N-NITROSOBIS(2-OXOPROPYL)AMINE, 60599-38-4, 1000 PPM IN DIET FOR 49 WK BEGINNING 1 WK POST CARCINOGEN LAST TREATMENT (STUDY DURATION: 51 WK), Species: HAMSTER, Strain/Sex: SYRIAN/FEMALE, Target Tissue: Type of Lesion: LIVER: CHOLANGIOCELLULAR ADENOMA, Dose [Carcinogen]: 20 MG/KG BW 1/WK FOR 2 WK","31%, 34%, -11%, not significant"
same,"tumour outcome (control, treated, inhibition, significance)","Carcinogen: N-NITROSOBIS(2-OXOPROPYL)AMINE, 60599-38-4, 1000 PPM IN DIET FOR 49 WK BEGINNING 1 WK POST CARCINOGEN LAST TREATMENT (STUDY DURATION: 51 WK), Species: HAMSTER, Strain/Sex: SYRIAN/FEMALE, Target Tissue: Type of Lesion: LIVER: CHOLANGIOCELLULAR CARCINOMA, Dose [Carcinogen]: 20 MG/KG BW 1/WK FOR 2 WK","65%, 55%, 16%, not significant"
same,"tumour outcome (control, treated, inhibition, significance)","Carcinogen: N-NITROSOBIS(2-OXOPROPYL)AMINE, 60599-38-4, 1000 PPM IN DIET FOR 49 WK BEGINNING 1 WK POST CARCINOGEN LAST TREATMENT (STUDY DURATION: 51 WK), Species: HAMSTER, Strain/Sex: SYRIAN/FEMALE, Target Tissue: Type of Lesion: LIVER: HEPATOCELLULAR ADENOMA, Dose [Carcinogen]: 20 MG/KG BW 1/WK FOR 2 WK","72% 59%, 19%, not significant"
same,"tumour outcome (control, treated, inhibition, significance)","Carcinogen: N-NITROSOBIS(2-OXOPROPYL)AMINE, 60599-38-4, 1000 PPM IN DIET FOR 49 WK BEGINNING 1 WK POST CARCINOGEN LAST TREATMENT (STUDY DURATION: 51 WK), Species: HAMSTER, Strain/Sex: SYRIAN/FEMALE, Target Tissue: Type of Lesion: LIVER: HEPATOCELLULAR CARCINOMA, Dose [Carcinogen]: 20 MG/KG BW 1/WK FOR 2 WK","17%, 21%, -20%, not significant"
same,"tumour outcome (control, treated, inhibition, significance)","Carcinogen: N-NITROSOBIS(2-OXOPROPYL)AMINE, 60599-38-4, 1000 PPM IN DIET FOR 49 WK BEGINNING 1 WK POST CARCINOGEN LAST TREATMENT (STUDY DURATION: 51 WK), Species: HAMSTER, Strain/Sex: SYRIAN/FEMALE, Target Tissue: Type of Lesion: LUNG: ADENOCARCINOMA, Dose [Carcinogen]: 20 MG/KG BW 1/WK FOR 2 WK","33%, 39%, -18%, not significant"
same,"tumour outcome (control, treated, inhibition, significance)","Carcinogen: N-NITROSOBIS(2-OXOPROPYL)AMINE, 60599-38-4, 1000 PPM IN DIET FOR 49 WK BEGINNING 1 WK POST CARCINOGEN LAST TREATMENT (STUDY DURATION: 51 WK), Species: HAMSTER, Strain/Sex: SYRIAN/FEMALE, Target Tissue: Type of Lesion: LUNG: ADENOMA, Dose [Carcinogen]: 20 MG/KG BW 1/WK FOR 2 WK","83%, 89%, -7%, not significant"
same,"tumour outcome (control, treated, inhibition, significance)","Carcinogen: N-NITROSOBIS(2-OXOPROPYL)AMINE, 60599-38-4, 1000 PPM IN DIET FOR 49 WK BEGINNING 1 WK POST CARCINOGEN LAST TREATMENT (STUDY DURATION: 51 WK), Species: HAMSTER, Strain/Sex: SYRIAN/FEMALE, Target Tissue: Type of Lesion: PANCREAS: ADENOCARCINOMA, Dose [Carcinogen]: 20 MG/KG BW 1/WK FOR 2 WK","86%, 90%, -4%, not significant"
